From patent US20190004043A1 (priority 2015, published 2019)
Entries after “also recorded” stand apart in the source; their conditions may differ. Like-named read-outs stand apart in the source and are kept apart here.

Tests used:
Type in all cases: binding
[1] = biological target: T1, Torpedo nicotinic Acetylcholine Receptor (Tetronarce californica, UniProt P02710+P02714+P02718); assay: Lateral flow test with two test lines: dose-response competition with biotinylated toxin tracer; details: for coloration of the two test lines / inhibition of labelled ligand binding: toxin 0.01 to 1 μM
T1 sequence (P02718 22-522): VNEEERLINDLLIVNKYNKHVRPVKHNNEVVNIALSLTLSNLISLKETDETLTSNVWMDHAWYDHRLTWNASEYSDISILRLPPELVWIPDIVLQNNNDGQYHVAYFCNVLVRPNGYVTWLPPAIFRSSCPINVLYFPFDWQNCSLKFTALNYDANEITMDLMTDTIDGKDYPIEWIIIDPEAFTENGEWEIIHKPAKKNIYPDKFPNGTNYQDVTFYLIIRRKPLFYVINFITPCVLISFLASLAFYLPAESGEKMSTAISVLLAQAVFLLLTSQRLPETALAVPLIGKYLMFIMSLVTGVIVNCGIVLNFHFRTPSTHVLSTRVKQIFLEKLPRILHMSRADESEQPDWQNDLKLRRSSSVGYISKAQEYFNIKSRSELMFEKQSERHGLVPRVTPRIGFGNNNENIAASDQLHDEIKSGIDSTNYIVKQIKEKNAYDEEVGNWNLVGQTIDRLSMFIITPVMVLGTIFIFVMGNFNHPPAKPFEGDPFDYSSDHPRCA
T1 sequence (P02714 18-506): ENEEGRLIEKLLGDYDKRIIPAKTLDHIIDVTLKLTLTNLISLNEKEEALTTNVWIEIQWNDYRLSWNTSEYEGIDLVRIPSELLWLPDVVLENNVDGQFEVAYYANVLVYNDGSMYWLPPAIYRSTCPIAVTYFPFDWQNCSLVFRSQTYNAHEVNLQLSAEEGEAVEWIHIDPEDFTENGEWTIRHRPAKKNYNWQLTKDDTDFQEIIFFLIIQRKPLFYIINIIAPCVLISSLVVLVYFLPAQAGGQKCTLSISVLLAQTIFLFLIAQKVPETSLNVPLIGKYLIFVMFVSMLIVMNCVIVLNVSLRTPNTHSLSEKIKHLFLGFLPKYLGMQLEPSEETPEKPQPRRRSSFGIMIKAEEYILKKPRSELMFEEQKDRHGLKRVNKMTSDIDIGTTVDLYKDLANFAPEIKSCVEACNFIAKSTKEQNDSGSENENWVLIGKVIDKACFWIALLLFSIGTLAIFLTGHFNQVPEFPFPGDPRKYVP
T1 sequence (P02712 25-493, further chain): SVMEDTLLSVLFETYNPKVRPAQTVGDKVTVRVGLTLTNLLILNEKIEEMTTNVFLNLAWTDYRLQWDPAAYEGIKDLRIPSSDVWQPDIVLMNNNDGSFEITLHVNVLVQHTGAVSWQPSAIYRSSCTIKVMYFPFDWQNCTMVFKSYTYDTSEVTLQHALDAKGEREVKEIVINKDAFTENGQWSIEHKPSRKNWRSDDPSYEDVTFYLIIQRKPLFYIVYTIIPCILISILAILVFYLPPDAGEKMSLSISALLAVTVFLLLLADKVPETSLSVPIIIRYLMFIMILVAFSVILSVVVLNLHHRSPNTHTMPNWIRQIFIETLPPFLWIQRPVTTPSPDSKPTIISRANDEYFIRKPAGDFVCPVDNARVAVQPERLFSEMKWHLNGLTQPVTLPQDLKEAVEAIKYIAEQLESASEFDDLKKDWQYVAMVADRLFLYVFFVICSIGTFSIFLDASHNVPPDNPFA
T1 sequence (P02710 25-461): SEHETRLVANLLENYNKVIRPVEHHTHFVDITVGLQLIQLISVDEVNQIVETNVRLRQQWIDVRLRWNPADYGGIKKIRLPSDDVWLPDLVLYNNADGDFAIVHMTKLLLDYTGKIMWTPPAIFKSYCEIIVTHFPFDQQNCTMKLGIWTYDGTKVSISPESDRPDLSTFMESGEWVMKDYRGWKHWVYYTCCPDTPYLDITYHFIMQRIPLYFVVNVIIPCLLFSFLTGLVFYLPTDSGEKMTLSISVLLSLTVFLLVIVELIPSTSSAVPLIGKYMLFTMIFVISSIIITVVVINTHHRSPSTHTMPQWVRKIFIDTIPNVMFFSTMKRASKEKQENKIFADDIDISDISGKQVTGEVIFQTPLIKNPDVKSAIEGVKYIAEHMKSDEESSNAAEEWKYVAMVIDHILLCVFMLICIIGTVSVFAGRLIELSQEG
Experimental: The device used was a device manufactured according to above example 1, with the exception that two test lines were used instead of one test line and one control line. The control line is used to control if the strip test works properly. We controlled that all the lateral flow test devices were working well and we carried out several tests without toxins that we took as control (Ctrl) that the device was working as expected (FIG. 4).
In the present example several experiments were carried out using different toxins at different concentrations. Through the format two test lines, we tested the potency of the toxins at a given concentration.
In particular, different doses of the snake toxin a-bungarotoxin were tested between 0.01 to 10 μM (FIG. 4A). For that purpose, 1 mL of α-bungarotoxin at a concentration of 10 μM was prepared from the commercial a-bungarotoxin (Sigma; 250 μM) using TBS-BSA buffer (150 mM NaCl, 50 mM Tris-HCl, 0.5% BSA, pH 7.5). Successively, 1 mL of 1 μM α-bungarotoxin was prepared by diluting 10-times the previous concentrated solution using TBS-BSA buffer. Serial 10-times dilutions were performed as described to obtain the 0.1 and 0.01 μM α-bungarotoxin solutions using TBS-BSA buffer.
Different doses of the dinoflagellate toxin pinnatoxin-G ranging from 0.01 to 100 μM were also tested (FIG. 4B). For that purpose, 1 mL of pinnatoxin-G at a concentration of 100 μM was prepared from the synthetic pinnatoxin-G stock (A. Zakarian; 2 mM) using TBS-BSA buffer (150 mM NaCl, 50 mM Tris-HCl, 0.5% BSA, pH 7.5). Successively, 1 mL of 50 μM pinnatoxin-G was prepared by diluting 2-times the previous concentrated solution using TBS-BSA buffer. A solution of 1 μM pinnatoxin-G was obtained by diluting 50-times the previous 50 μM pinnatoxin-G solution using TBS-BSA buffer. Serial 10-times dilutions were performed as described to obtain the 0.1 and 0.01 μM pinnatoxin-G solutions using TBS-BSA buffer.
Finally, different doses of the dinoflagellate toxin 13,19-didesmethyl-spirolide C ranging from 0.01 to 10 μM were also tested. For that purpose, 1 mL of 13,19-didesmethyl-spirolide C at a concentration of 10 μM was prepared from the concentrated 13,19-didesmethyl-spirolide C stock (CIFGA; 100 μM) using TBS-BSA buffer (150 mM NaCl, 50 mM Tris-HCl, 0.5% BSA, pH 7.5). Successively, 1 mL of 1 μM 13,19-didesmethyl-spirolide C was prepared by diluting 10-times the previous concentrated solution using TBS-BSA buffer. Serial 10-times dilutions were performed as described to obtain the 0.1 and 0.01 μM 13,19-didesmethyl-spirolide C solutions using TBS-BSA buffer.
The competition experiments were carried out as disclosed in above example 2.

[2] = biological target: T1, Torpedo nicotinic Acetylcholine Receptor; assay: as above; details: lower concentrations (0.001 to 1 μM)
[3] = biological target: T1, Torpedo nicotinic Acetylcholine Receptor

## α-bungarotoxin
[1]
  coloration of the two test lines / binding of labelled tracer: inhibited the binding of the labelled tracer in both test lines
  coloration of the two test lines versus control test: both test lines are colored showing, however, a less intensity than in the control test
  inhibition of binding of the labelled ligand (test lines colorless): 100%

## C=CC1=C[C@@H]2[C@@H]3O[C@]4(C[C@H]5CCC[C@@]6(CC[C@@]7(O[C@@H](CC[C@@]7(C)O)CC(=C)CCCC7=NC[C@H](C)[C@@H](C)C[C@@]72CC1)O6)O5)C[C@@H](C)[C@@H](O)[C@H]3O4 [pinnatoxin-G]
[2]
  coloration of the two test lines versus control test: only the upper test line was colored but to a less intensity than in the control test
[1]; toxin 50 μM
  coloration of the two test lines versus control strip: both test lines were colorless
  inhibition of binding of the labelled ligand (test lines colorless): 100%
[1]; toxin 100 μM
  coloration of the two test lines versus control strip: both test lines were colorless
  inhibition of binding of the labelled ligand (test lines colorless): 100%
[1]
  coloration of the two test lines / inhibition of labelled ligand binding: only the second test line was colored with a lower intensity than was shown by the control strip

## C=C1CCCC2=NCC(C)C(C)CC23CCC(C2C=C(C)C(=O)O2)=C(C)C3/C=C(/C)C(O)CC2CCC3(CCC4(OC(CCC4(C)O)C1)O3)O2 (centres unmarked) [13-desmethyl-spirolide C]
[3]
  coloration of test line versus control line / inhibition of tracer binding: a colorless or a less-colored band in the test zone; also recorded: inhibits the binding of the tracer

## C=C1CCCC2=NCC(C)C(C)CC23CCC(C2C=C(C)C(=O)O2)=C(C)C3/C=C(\C)C(O)CC2CCC3(CCC4(OC(CCC4O)C1)O3)O2 (centres unmarked) [13,19-didesmethyl-spirolide C]
[1]; all concentrations, 0.01 to 10 μM
  inhibition of binding of the biotinylated toxin tracer: inhibited the binding of the biotinylated toxin tracer at all concentration
[1]; toxin 1 μM
  inhibition of binding of the labelled ligand (test lines colorless): 100%
[1]; toxin 10 μM
  inhibition of binding of the labelled ligand (test lines colorless): 100%
[1]
  coloration of the two test lines / inhibition of labelled ligand binding: strong inhibition
